The assay deals with T1, Human Factor XIIa (Homo sapiens, UniProt P00748).
T1 construct: Human Factor XIIa (Enzyme Research Laboratories) was incubated; purchased Enzyme Research Laboratories
T1 sequence (P00748 373-615 limits assumed): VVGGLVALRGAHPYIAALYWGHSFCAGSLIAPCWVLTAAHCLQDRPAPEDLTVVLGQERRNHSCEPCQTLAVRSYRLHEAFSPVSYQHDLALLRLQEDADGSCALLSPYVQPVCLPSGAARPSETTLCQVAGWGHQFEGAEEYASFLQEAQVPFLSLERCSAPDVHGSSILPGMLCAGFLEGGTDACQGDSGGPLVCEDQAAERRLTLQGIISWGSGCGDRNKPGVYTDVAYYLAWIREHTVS
T1 sequence (P00748 20-372 partner limits assumed): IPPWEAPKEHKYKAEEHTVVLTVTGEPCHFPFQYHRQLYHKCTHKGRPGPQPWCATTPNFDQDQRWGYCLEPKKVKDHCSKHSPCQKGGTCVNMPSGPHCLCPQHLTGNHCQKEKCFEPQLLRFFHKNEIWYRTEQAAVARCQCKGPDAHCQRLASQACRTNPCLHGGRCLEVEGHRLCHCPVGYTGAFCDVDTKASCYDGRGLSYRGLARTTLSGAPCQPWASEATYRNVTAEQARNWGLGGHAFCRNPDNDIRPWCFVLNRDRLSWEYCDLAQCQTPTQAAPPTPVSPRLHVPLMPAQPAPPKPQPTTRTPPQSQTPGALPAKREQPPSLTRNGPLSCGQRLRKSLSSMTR
Nature of the assay: Determination of FXIIa inhibitory activity in vitro (fluorogenic substrate H-DPro-Phe-Arg-AFC). It is filed as biochemical. The settings on record: 25° C., residual enzyme activity (initial rate).

The structures appear in SMILES notation.

For orientation: IC50 means the concentration that gives 50% inhibition. The low end stands for inhibition by little substance, the high end for a need for much substance.

As to `COc1ccc(CNCc2sc(C(=O)NCc3ccc4c(N)nccc4c3)cc2Cl)cc1` [Example 2.05], the IC50 fell in the range of 10 to 40 µM. Then `CC(=O)NCCCNCc1sc(C(=O)NCc2ccc3c(N)nccc3c2)cc1Cl` [Example 2.51], with 10 to 40 µM.

In turn, `Nc1nccc2cc(CNC(=O)c3cc(Cl)c(CNCCN4CCCC4=O)s3)ccc12` [Example 2.38] yielded an IC50 of 10 to 40 µM. `Cc1c(C(=O)NCc2ccc3c(N)nccc3c2)cc(-c2ccccc2)n1CCCN1CCOCC1` [Example 51.01]: the IC50 was 10 to 40 µM. Then `CN(C)CCCNCc1sc(C(=O)NCc2ccc3c(N)nccc3c2)cc1Cl` [Example 2.33], with 3 to 10 µM. `Cn1cc(CCCOCc2sc(C(=O)NCc3ccc4c(N)nccc4c3)cc2Cl)cn1` [Example 7.27]: the IC50 lay within 3 to 10 µM. The compound `CN1CCC(CCc2sc(C(=O)NCc3ccc4c(N)nccc4c3)cc2Cl)CC1` [Example 25.11] yielded an IC50 of 1 to 3 µM. `Nc1nccc2cc(CNC(=O)c3ccc(Cl)s3)ccc12` [Example 25.03] gave an IC50 of 10 to 40 µM. In turn, `Nc1nccc2cc(CNC(=O)c3cc(Cl)c(CNCCOc4ccccc4)s3)ccc12` [Example 2.21] registered an IC50 of 10 to 40 µM. As to `CN1CCC(CNc2ncsc2C(=O)NCc2ccc3c(N)nccc3c2)CC1` [Example 26.16, N-((1-Aminoisoquinolin-6-yl)methyl)-4-(((1-methylpiperidin-4-yl)methyl)amino)thiazole-5-carboxamide], the IC50 fell in the range of 1 to 3 µM. Take `CS(=O)(=O)c1ccc(OCc2sc(C(=O)NCc3ccc4c(N)nccc4c3)cc2Cl)cc1` [Example 7.01]: the IC50 lay in the range of 10 to 40 µM. Compound `Nc1nccc2cc(CNC(=O)c3cc(Cl)c(CNCCn4ccnc4)s3)ccc12` [Example 2.23] had an IC50 of 10 to 40 µM. Under `CN(C)c1ccccc1CNCc1sc(C(=O)NCc2ccc3c(N)nccc3c2)cc1Cl` [Example 2.08] stands 10 to 40 µM.

Turning to `CC(=O)NCCNCc1sc(C(=O)NCc2ccc3c(N)nccc3c2)cc1Cl` [Example 2.27], the IC50 fell in the range of 10 to 40 µM. Then `Nc1nccc2cc(CNC(=O)c3cc4c(F)cccc4s3)ccc12` [Example 25.206], with 10 to 40 µM; and `Nc1nccc2cc(CNC(=O)c3cc(Cl)c(CNCc4cccc(N5CCCC5=O)c4)s3)ccc12` [Example 2.42], with 10 to 40 µM.

The compound `Nc1nccc2cc(CNC(=O)c3cc(Cl)c(CNCc4cccnc4)s3)ccc12` [Example 2.32] displayed an IC50 of 3 to 10 µM. Then `CN(C)CCCOCc1sc(C(=O)NCc2ccc3c(N)nccc3c2)cc1Cl` [Example 7.31], with 1 to 3 µM. Take `CN1CCN(Cc2sc(C(=O)NCc3ccc4c(N)nccc4c3)cc2Cl)CC1` [Example 5.04]: the IC50 was 10 to 40 µM. Then `Nc1nccc2cc(CNC(=O)c3cc(Cl)c(CNc4ccccc4)s3)ccc12` [Example 2.03], with 10 to 40 µM; and `Nc1nccc2cc(CNC(=O)c3cc(Cl)c(COc4ccc(N5CCNCC5)cc4)s3)ccc12` [Example 7.03, N-((1-Aminoisoquinolin-6-yl)methyl)-4-chloro-5-((4-(piperazin-1-yl)phenoxy)methyl)thiophene-2-carboxamide], with 1 to 3 µM.

Consider `Nc1nccc2cc(CNC(=O)c3cc4cccc(Cl)c4s3)ccc12` [Example 25.204], for which the IC50 was 10 to 40 µM.

For the compound `Nc1nccc2cc(CNC(=O)c3cc(Cl)c(COCCN4CCOCC4)s3)ccc12` [Example 7.06], the IC50 was in the range of 3 to 10 µM. Take `CN(C)CCCOc1cccc(CNCc2sc(C(=O)NCc3ccc4c(N)nccc4c3)cc2Cl)c1` [Example 2.52]: the IC50 lay within 3 to 10 µM. As to `CC(C)N1CCN(CCCNCc2sc(C(=O)NCc3ccc4c(N)nccc4c3)cc2Cl)CC1` [Example 2.34], the IC50 was in the range of 3 to 10 µM.

On to `Nc1nccc2cc(CNC(=O)c3cc(Cl)c(CNCCN4CCS(=O)(=O)CC4)s3)ccc12` [Example 2.25], for which the IC50 lay in the range of 10 to 40 µM. With `CCN(CC)CCCOCc1sc(C(=O)NCc2ccc3c(N)nccc3c2)cc1Cl` [Example 7.22], the IC50 was in the range of 1 to 3 µM.

`CC(C)N1CCN(Cc2sc(C(=O)NCc3ccc4c(N)nccc4c3)cc2Cl)CC1` [Example 5.06] yielded an IC50 of 10 to 40 µM. The compound `Cc1sc(C(=O)NCc2cc3c(N)nccc3s2)cc1Cl` [Example 25.103, N-((4-aminothieno[3,2-c]pyridin-2-yl)methyl)-4-chloro-5-methylthiophene-2-carboxamide] had an IC50 of 10 to 40 µM. Under `Nc1nccc2cc(CNC(=O)c3cc(Cl)c(CN4CCC(CCN5CCCC5=O)CC4)s3)ccc12` [Example 5.13] stands 10 to 40 µM. The compound `CC(C)N(CCNCc1sc(C(=O)NCc2ccc3c(N)nccc3c2)cc1Cl)C(C)C` [Example 2.56] returned an IC50 of 3 to 10 µM. In the case of `CN1CCC(Nc2cccc3sc(C(=O)NCc4ccc5c(N)nccc5c4)cc23)CC1` [Example 25.208], the IC50 is 3 to 10 µM.

`Nc1nccc2cc(CNC(=O)c3cc(Cl)c(CN4CCOCC4)s3)ccc12` [Example 5.03]: the IC50 was in the range of 10 to 40 µM. In turn, `Nc1nccc2cc(CNC(=O)c3cc(Cl)c(CN4CCC5(CC4)OCCO5)s3)ccc12` [Example 5.14] returned an IC50 of 10 to 40 µM.

In turn, `Nc1nccc2cc(CNC(=O)c3nc(CCC4CCNCC4)cs3)ccc12` [Example 25.14] returned an IC50 of 1 to 3 µM. `Nc1nccc2cc(CNC(=O)c3cc(Cl)c(CNCCCOc4ccccc4)s3)ccc12` [Example 2.22] displayed an IC50 of 10 to 40 µM.

Consider `CS(=O)(=O)N1CCN(Cc2sc(C(=O)NCc3ccc4c(N)nccc4c3)cc2Cl)CC1` [Example 5.07], for which the IC50 was 10 to 40 µM. Take `CN(C)CCCCOCc1sc(C(=O)NCc2ccc3c(N)nccc3c2)cc1Cl` [Example 7.26, N-((1-Aminoisoquinolin-6-yl)methyl)-4-chloro-5-((4-(dimethylamino)butoxy)methyl)thiophene-2-carboxamide]: the IC50 is 1 to 3 µM. `CN(C)CCOCc1sc(C(=O)NCc2ccc3c(N)nccc3c2)cc1Cl` [Example 7.15] returned an IC50 of 3 to 10 µM. Under `Cc1nsc(C(=O)NCc2ccc3c(N)nccc3c2)c1NCC1CCN(C)CC1` [Example 26.15] stands 3 to 10 µM. The compound `CN1CCC(CNc2cccc3sc(C(=O)NCc4ccc5c(N)nccc5c4)cc23)CC1` [Example 25.209] gave an IC50 of 3 to 10 µM. `CN1C(C)(C)CC(NCc2sc(C(=O)NCc3ccc4c(N)nccc4c3)cc2Cl)CC1(C)C` [Example 2.53]: the IC50 was 3 to 10 µM.

`Nc1nccc2cc(CNC(=O)c3cc(Cl)c(COCCN4CCS(=O)(=O)CC4)s3)ccc12` [Example 7.09]: the IC50 was in the range of 3 to 10 µM. `CC(C)NC(=O)N(C)c1ccc(OCc2sc(C(=O)NCc3ccc4c(N)nccc4c3)cc2Cl)cc1` [Example 7.04]: the IC50 fell in the range of 10 to 40 µM. As to `Cc1cc(N)nc(C)c1CNC(=O)c1cc(Cl)c(C)s1` [Example 25.105, N-[(6-Amino-2,4-dimethylpyridin-3-yl)methyl]-4-chloro-5-methylthiophene-2-carboxamide], the IC50 lay in the range of 40 to 70 µM. Under `Nc1nccc2cc(CNC(=O)c3cc(Cl)c(CNCCN4CCOCC4)s3)ccc12` [Example 2.18] stands 10 to 40 µM; under `Cc1sc(C(=O)NCc2ccc3c(N)nccc3c2)c(NCC2CCN(C)CC2)c1C` [Example 26.11], 3 to 10 µM. Compound `Nc1nccc2cc(CNC(=O)c3cc4cc(F)ccc4s3)ccc12` [Example 25.205] registered an IC50 of 3 to 10 µM.

Compound `CC(=O)N1CCN(CCNCc2sc(C(=O)NCc3ccc4c(N)nccc4c3)cc2Cl)CC1` [Example 2.24] had an IC50 of 10 to 40 µM. `CN1CCC(COCc2sc(C(=O)NCc3ccc4c(N)nccc4c3)cc2Cl)CC1` [Example 7.08] returned an IC50 of 1 to 3 µM. Then `Cc1sc(C(=O)NCc2ccc3c(N)nccc3c2)cc1Cl` [Example 25.04], with 3 to 10 µM; and `Nc1nccc2cc(CNC(=O)c3cc(Cl)cs3)ccc12` [Example 25.01], with 10 to 40 µM; and `Nc1nccc2cc(CNC(=O)c3cc(Cl)c(COCC4CCOCC4)s3)ccc12` [Example 7.13], with 3 to 10 µM. Consider `Cc1nsc(C(=O)NCc2ccc3c(N)nccc3c2)c1NCC1CCNCC1` [Example 26.14], for which the IC50 fell in the range of 10 to 40 µM. Under `Nc1nccc2cc(CNC(=O)c3cc(Cl)c(CNCCN4CCCCC4)s3)ccc12` [Example 2.04] stands 3 to 10 µM; under `Nc1nccc2cc(CNC(=O)c3cc(Cl)c(Cc4ccccc4O)s3)ccc12` [Example 25.05], 10 to 40 µM; under `Cc1nc2[nH]ccc2c(C)c1CNC(=O)c1cc(Cl)c(C)s1` [Example 25.101, 4-Chloro-N-((4,6-dimethyl-1H-pyrrolo[2,3-b]pyridin-5-yl)methyl)-5-methylthiophene-2-carboxamide], 10 to 40 µM.

On to `CN1CCC(CCc2csc(C(=O)NCc3ccc4c(N)nccc4c3)n2)CC1` [Example 25.15, N-((1-Aminoisoquinolin-6-yl)methyl)-4-(2-(1-methylpiperidin-4-yl)ethyl)thiazole-2-carboxamide], for which the IC50 is less than 1 µM. `CS(=O)(=O)c1cccc(COCc2sc(C(=O)NCc3ccc4c(N)nccc4c3)cc2Cl)c1` [Example 7.11] had an IC50 of 10 to 40 µM. The compound `CS(=O)(=O)c1ccccc1CNCc1sc(C(=O)NCc2ccc3c(N)nccc3c2)cc1Cl` [Example 2.13] displayed an IC50 of 10 to 40 µM. Under `Nc1nccc2cc(CNC(=O)c3cc(Cl)c(CNCc4ccncc4)s3)ccc12` [Example 2.31] stands 3 to 10 µM.

The record behind these values is patent publication US20220289727A1, “ENZYME INHIBITORS” (KALVISTA PHARMACEUTICALS LIMITED, priority 2019, published 2022).
